Assay results as given in patent US11572399B2, “Long-acting GIP peptide analogues” (University of Copenhagen, priority 2017, dated 2023).
Peptide text beside a SMILES is read from it. * marks the point of attachment. C16 diacid = O=C(O)CCCCCCCCCCCCCCC(=O)*

Biological target: T1, human GIP receptor (Homo sapiens, UniProt P48546)
T1 construct: host or cells: COS-7, transient transfection (calcium phosphate), cDNA in pCMV-Script
T1 sequence (P48546 22-466): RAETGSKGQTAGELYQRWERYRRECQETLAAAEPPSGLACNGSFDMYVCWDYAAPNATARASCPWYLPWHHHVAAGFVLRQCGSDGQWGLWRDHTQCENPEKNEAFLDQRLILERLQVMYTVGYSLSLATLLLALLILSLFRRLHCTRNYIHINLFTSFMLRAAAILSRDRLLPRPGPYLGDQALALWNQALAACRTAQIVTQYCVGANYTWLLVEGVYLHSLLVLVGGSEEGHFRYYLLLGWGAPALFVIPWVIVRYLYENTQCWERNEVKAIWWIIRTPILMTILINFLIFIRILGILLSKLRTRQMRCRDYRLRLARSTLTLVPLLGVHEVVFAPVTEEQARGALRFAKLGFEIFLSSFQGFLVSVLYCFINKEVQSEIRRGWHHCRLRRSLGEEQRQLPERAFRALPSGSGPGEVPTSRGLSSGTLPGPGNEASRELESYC
Assay: cAMP accumulation assay, agonism (ligand alone)
Assay type: cell-based
Settings: COS-7 cells, Table 1; for Emax: COS-7, intrinsic cAMP activity; for EC50: read-out: cAMP agonism nM (EC50)
Description: COS-7 cells were cultured at 10% CO2 and 37° C. in Dulbecco's modified Eagle's medium 1885 supplemented with 10% fetal bovine serum, 2 mM glutamine, 180 units/ml penicillin, and 45 µg/ml streptomycin. Transient transfection of the COS-7 cells for cAMP accumulation and competition binding was performed using the calcium phosphate precipitation method with the addition of chloroquine^46-47.
Transient transfected COS-7 cells expressing the human GIP receptor were seeded in white 96-well plates with a density of 3.5*10^4/well. The day after, the cells were washed twice with Hepes buffered saline (HBS) buffer and incubated with HBS and 1 mM 3-isobutyl-1-methylxanthine (IBMX) for 30 min at 37° C. To test for agonistic properties, ligands were added and incubated for 30 min at 37° C. In order to test for antagonistic properties, the cells were preincubated with the antagonists for 10 min prior to the addition of the agonist and subsequent incubated for 20 additional min. The HitHunter™ cAMP XS assay (DiscoveRx) was carried out according to the manufacturer's instructions.
IC50, EC50, and Ki values were determined by nonlinear regression. These were carried out with the GraphPad Prism 6.0 software (GraphPad, San Diego, Calif., USA) and Microsoft Excel™. Ki values were based on the formula for one class of binding sites in homologous competition binding studies and the Cheng Prussoffs formula, respectively (DeBlasi et al., 1989). To determine the HSA binding potential, the fold change in affinity (as determined by IC50) was calculated as IC50 (plus HSA)/IC50 (minus HSA).

Row | SMILES | Emax | cAMP agonism Emax (intrinsic cAMP activity) | EC50
1 | CC[C@H](C)[C@H](NC(=O)[C@H](CO)NC(=O)[C@H](Cc1ccc(O)cc1)NC(=O)[C@H](CC(=O)O)NC(=O)[C@H](CO)NC(=O)[C@@H](NC(=O)[C@H](Cc1ccccc1)NC(=O)[C@@H](NC(=O)CNC(=O)[C@@H](N)CCC(=O)O)[C@@H](C)O)[C@@H](C)CC)C(=O)N[C@@H](C)C(=O)N[C@@H](CCSC)C(=O)N[C@@H](CC(=O)O)C(=O)N[C@@H](CCCCN)C(=O)N[C@H](C(=O)N[C@@H](Cc1c[nH]cn1)C(=O)N[C@@H](CCCCNC(=O)CCCCCCCCCCCCCCC(=O)O)C(=O)N[C@@H](CCC(N)=O)C(=O)N[C@@H](CC(=O)O)C(=O)N[C@@H](Cc1ccccc1)C(=O)N[C@H](C(=O)N[C@@H](CC(N)=O)C(=O)N[C@@H](Cc1c[nH]c2ccccc12)C(=O)N[C@@H](CC(C)C)C(=O)N[C@@H](CC(C)C)C(=O)N[C@@H](C)C(=O)N[C@@H](CCC(N)=O)C(=O)N[C@@H](CCCCN)C(N)=O)C(C)C)[C@@H](C)CC [AT308, [hGIP(3-30)NH2[Q19K]-C16diacid/19]] (H-EGTFISDYSIAMDKIHK(C16 diacid)QDFVNWLLAQK-NH2; N-terminus assumed) | 7.9% |  | 
2 | CC[C@H](C)[C@H](NC(=O)[C@H](CO)NC(=O)[C@H](Cc1ccc(O)cc1)NC(=O)[C@H](CC(=O)O)NC(=O)[C@H](CO)NC(=O)[C@@H](NC(=O)[C@H](Cc1ccccc1)NC(=O)[C@@H](NC(=O)CNC(=O)[C@@H](N)CCC(=O)O)[C@@H](C)O)[C@@H](C)CC)C(=O)N[C@@H](C)C(=O)N[C@@H](CCSC)C(=O)N[C@@H](CC(=O)O)C(=O)N[C@@H](CCCCN)C(=O)N[C@H](C(=O)N[C@@H](Cc1c[nH]cn1)C(=O)N[C@@H](CCC(N)=O)C(=O)N[C@@H](CCCCNC(=O)CCCCCCCCCCCCCCC(=O)O)C(=O)N[C@@H](CC(=O)O)C(=O)N[C@@H](Cc1ccccc1)C(=O)N[C@H](C(=O)N[C@@H](CC(N)=O)C(=O)N[C@@H](Cc1c[nH]c2ccccc12)C(=O)N[C@@H](CC(C)C)C(=O)N[C@@H](CC(C)C)C(=O)N[C@@H](C)C(=O)N[C@@H](CCC(N)=O)C(=O)N[C@@H](CCCCN)C(N)=O)C(C)C)[C@@H](C)CC [AT309, [hGIP(3-30)NH2[Q20K]-C16diacid/20]] (H-EGTFISDYSIAMDKIHQK(C16 diacid)DFVNWLLAQK-NH2; N-terminus assumed) |  | no ag. | 
3 | CC[C@H](C)[C@H](NC(=O)[C@H](CO)NC(=O)[C@H](Cc1ccc(O)cc1)NC(=O)[C@H](CC(=O)O)NC(=O)[C@H](CO)NC(=O)[C@@H](NC(=O)[C@H](Cc1ccccc1)NC(=O)[C@@H](NC(=O)CNC(=O)[C@@H](N)CCC(=O)O)[C@@H](C)O)[C@@H](C)CC)C(=O)N[C@@H](C)C(=O)N[C@@H](CCSC)C(=O)N[C@@H](CC(=O)O)C(=O)N[C@@H](CCCCN)C(=O)N[C@H](C(=O)N[C@@H](Cc1c[nH]cn1)C(=O)N[C@@H](CCC(N)=O)C(=O)N[C@@H](CCC(N)=O)C(=O)N[C@@H](CC(=O)O)C(=O)N[C@@H](CCCCNC(=O)CCCCCCCCCCCCCCC(=O)O)C(=O)N[C@H](C(=O)N[C@@H](CC(N)=O)C(=O)N[C@@H](Cc1c[nH]c2ccccc12)C(=O)N[C@@H](CC(C)C)C(=O)N[C@@H](CC(C)C)C(=O)N[C@@H](C)C(=O)N[C@@H](CCC(N)=O)C(=O)N[C@@H](CCCCN)C(N)=O)C(C)C)[C@@H](C)CC [AT311, [hGIP(3-30)NH2[F22K]-C16diacid/22]] (H-EGTFISDYSIAMDKIHQQDK(C16 diacid)VNWLLAQK-NH2; N-terminus assumed) | 17.5% |  | 
4 | CC[C@H](C)[C@H](NC(=O)[C@H](CO)NC(=O)[C@H](Cc1ccc(O)cc1)NC(=O)[C@H](CC(=O)O)NC(=O)[C@H](CO)NC(=O)[C@@H](NC(=O)[C@H](Cc1ccccc1)NC(=O)[C@@H](NC(=O)CNC(=O)[C@@H](N)CCC(=O)O)[C@@H](C)O)[C@@H](C)CC)C(=O)N[C@@H](C)C(=O)N[C@@H](CCSC)C(=O)N[C@@H](CC(=O)O)C(=O)N[C@@H](CCCCN)C(=O)N[C@H](C(=O)N[C@@H](Cc1c[nH]cn1)C(=O)N[C@@H](CCC(N)=O)C(=O)N[C@@H](CCC(N)=O)C(=O)N[C@@H](CC(=O)O)C(=O)N[C@@H](Cc1ccccc1)C(=O)N[C@@H](CCCCNC(=O)CCCCCCCCCCCCCCC(=O)O)C(=O)N[C@@H](CC(N)=O)C(=O)N[C@@H](Cc1c[nH]c2ccccc12)C(=O)N[C@@H](CC(C)C)C(=O)N[C@@H](CC(C)C)C(=O)N[C@@H](C)C(=O)N[C@@H](CCC(N)=O)C(=O)N[C@@H](CCCCN)C(N)=O)[C@@H](C)CC [AT312, [hGIP(3-30)NH2[V23K]-C16diacid/23]] (H-EGTFISDYSIAMDKIHQQDFK(C16 diacid)NWLLAQK-NH2; N-terminus assumed) | 54% |  | 
5 | CC[C@H](C)[C@H](NC(=O)[C@H](CO)NC(=O)[C@H](Cc1ccc(O)cc1)NC(=O)[C@H](CC(=O)O)NC(=O)[C@H](CO)NC(=O)[C@@H](NC(=O)[C@H](Cc1ccccc1)NC(=O)[C@@H](NC(=O)CNC(=O)[C@@H](N)CCC(=O)O)[C@@H](C)O)[C@@H](C)CC)C(=O)N[C@@H](C)C(=O)N[C@@H](CCSC)C(=O)N[C@@H](CC(=O)O)C(=O)N[C@@H](CCCCN)C(=O)N[C@H](C(=O)N[C@@H](Cc1c[nH]cn1)C(=O)N[C@@H](CCC(N)=O)C(=O)N[C@@H](CCC(N)=O)C(=O)N[C@@H](CC(=O)O)C(=O)N[C@@H](Cc1ccccc1)C(=O)N[C@H](C(=O)N[C@@H](CCCCNC(=O)CCCCCCCCCCCCCCC(=O)O)C(=O)N[C@@H](Cc1c[nH]c2ccccc12)C(=O)N[C@@H](CC(C)C)C(=O)N[C@@H](CC(C)C)C(=O)N[C@@H](C)C(=O)N[C@@H](CCC(N)=O)C(=O)N[C@@H](CCCCN)C(N)=O)C(C)C)[C@@H](C)CC [AT313, [hGIP(3-30)NH2[N24K]-C16diacid/24]] (H-EGTFISDYSIAMDKIHQQDFVK(C16 diacid)WLLAQK-NH2; N-terminus assumed) | 7.2% |  | 
6 | CC[C@H](C)[C@H](NC(=O)[C@H](CO)NC(=O)[C@H](Cc1ccc(O)cc1)NC(=O)[C@H](CC(=O)O)NC(=O)[C@H](CO)NC(=O)[C@@H](NC(=O)[C@H](Cc1ccccc1)NC(=O)[C@@H](NC(=O)CNC(=O)[C@@H](N)CCC(=O)O)[C@@H](C)O)[C@@H](C)CC)C(=O)N[C@@H](C)C(=O)N[C@@H](CCSC)C(=O)N[C@@H](CC(=O)O)C(=O)N[C@@H](CCCCN)C(=O)N[C@H](C(=O)N[C@@H](Cc1c[nH]cn1)C(=O)N[C@@H](CCC(N)=O)C(=O)N[C@@H](CCC(N)=O)C(=O)N[C@@H](CC(=O)O)C(=O)N[C@@H](Cc1ccccc1)C(=O)N[C@H](C(=O)N[C@@H](CC(N)=O)C(=O)N[C@@H](CCCCNC(=O)CCCCCCCCCCCCCCC(=O)O)C(=O)N[C@@H](CC(C)C)C(=O)N[C@@H](CC(C)C)C(=O)N[C@@H](C)C(=O)N[C@@H](CCC(N)=O)C(=O)N[C@@H](CCCCN)C(N)=O)C(C)C)[C@@H](C)CC [AT314, [hGIP(3-30)NH2[W25K]-C16diacid/25]] (H-EGTFISDYSIAMDKIHQQDFVNK(C16 diacid)LLAQK-NH2; N-terminus assumed) | 28.4% |  | 62 nM
7 | CC[C@H](C)[C@H](NC(=O)[C@H](CO)NC(=O)[C@H](Cc1ccc(O)cc1)NC(=O)[C@H](CC(=O)O)NC(=O)[C@H](CO)NC(=O)[C@@H](NC(=O)[C@H](Cc1ccccc1)NC(=O)[C@@H](NC(=O)CNC(=O)[C@@H](N)CCC(=O)O)[C@@H](C)O)[C@@H](C)CC)C(=O)N[C@@H](C)C(=O)N[C@@H](CCSC)C(=O)N[C@@H](CC(=O)O)C(=O)N[C@@H](CCCCN)C(=O)N[C@H](C(=O)N[C@@H](Cc1c[nH]cn1)C(=O)N[C@@H](CCC(N)=O)C(=O)N[C@@H](CCC(N)=O)C(=O)N[C@@H](CC(=O)O)C(=O)N[C@@H](Cc1ccccc1)C(=O)N[C@H](C(=O)N[C@@H](CC(N)=O)C(=O)N[C@@H](Cc1c[nH]c2ccccc12)C(=O)N[C@@H](CCCCNC(=O)CCCCCCCCCCCCCCC(=O)O)C(=O)N[C@@H](CC(C)C)C(=O)N[C@@H](C)C(=O)N[C@@H](CCC(N)=O)C(=O)N[C@@H](CCCCN)C(N)=O)C(C)C)[C@@H](C)CC [AT315, [hGIP(3-30)NH2[L26K]-C16diacid/26]] (H-EGTFISDYSIAMDKIHQQDFVNWK(C16 diacid)LAQK-NH2; N-terminus assumed) | 5.9% |  | 183 nM
